In BindingDB's records for doi:10.1016/j.bmc.2007.01.049 (University of Ferrara, 2007):
pIC50: −log10 of the molar value.

Target: deoxyguanosine kinase (Homo sapiens)
Assay: Inhibition of human dGK assessed as […] phosphorylation

| pIC50 | SMILES |
| --- | --- |
| < 3.30 | CCCCCCCC(=O)Nc1nc2c(ncn2[C@@H]2O[C@H](CO)[C@@H](O)[C@@H]2OC(=O)CCCCCCC)c(=O)[nH]1 [N2-octanoyl-9-(2'-O-octanoyl-beta-D-arabinofuranosyl)guanine] |
| < 3.30 | CCCCCCCC(=O)O[C@H]1[C@H](O)[C@@H](CO)O[C@H]1n1cnc2c(=O)[nH]c(N)nc21 [9-(2'-O-octanoyl-beta-D-arabinofuranosyl)guanine] |
